# Target: T1, DYNLL1 (Homo sapiens, UniProt P63167)
# T1 construct: 6xHis (N); made in house; host or cells: E. coli BL21(DE3)Star
# Experiment: Isothermal titration calorimetry of peptide/protein binding to DYNLL1
# Settings: PBS + 3 mM 2-mercaptoethanol pH 7.4, 299 K; for ΔH: ITC binding enthalpy; for -TΔS: ITC entropy term; for Kd: ITC, 15 µM DYNLL1 in the cell, A + B to AB model, dimeric peptides reach the dynamic range limit of ITC
# Experimental: Binding parameters of the in vitro evolved Ac-[…] and naturally evolved Ac-DKSTQTD consensus peptides were determined by isothermal titration calorimetry (ITC). Synthetic peptides were used and N-terminal acetylation was applied to better mimic a non-terminal peptide motif by avoiding the positively charged N-terminus. In order to elucidate the particular contribution of Val-5 to the binding affinity, several control peptides were produced. The in vitro evolved Val-5 was replaced with a glycine (Gly-5) to assess side chain function. In a further truncated variant the entire amino acid residue was replaced with an acetate group (Ac-5) to assess the function of the amide group at position −5. The same variations of Val-5, Gly-5 or Ac-5 were also introduced in the framework of the naturally evolved consensus peptide. DYNNL1 binding of all six variants was analyzed by ITC. In all measurements the stoichiometry of binding was 1∶1 (2 peptides binding to one homodimer DYNNL1). The binding was enthalpy-driven and was accompanied with unfavorable entropy change. Ac-5 versions of both the natural and the in vitro evolved consensus peptide had binding affinities in the micromolar range. Replacing the acetyl group with Gly-5 led to a tenfold affinity increase with both peptides.
# All peptides and DYNLL1 were dialyzed overnight in PBS buffer supplemented with 3 mM 2-mercaptoethanol (pH 7.4). A typical binding experiment involved 15 µM DYNLL1 in the cell and 30–40 injections varying between of 3–5 µl peptide solution. For each experiment the thermodynamic parameters were determined at 299 K. We used a VP-ITC instrument from Microcal and the data were fitted by the software package Origin 5.0 (OriginLab) using the simple A + B to AB binding model. The signal from an initial 2 µl injection was eliminated. The equilibration time between injections was 900 sec.
# T1 sequence (P63167 whole entry): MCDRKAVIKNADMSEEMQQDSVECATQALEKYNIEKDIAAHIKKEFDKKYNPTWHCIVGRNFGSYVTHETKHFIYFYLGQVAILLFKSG
Substance,ΔH [kcal/mol],-TΔS [kcal/mol],Kd [nM]
"dimeric-GSGDKSTQTD [recombinant GCN4 leucine zipper-fused, dimerized Gly-5 natural consensus peptide]",-18.2,<7.03,< 7
"dimeric-GSGSRGTQTE [recombinant GCN4 leucine zipper-fused, dimerized Gly-5 in vitro evolved peptide]",-16.6,<4.92,< 3
"dimeric-GSVDKSTQTD [recombinant GCN4 leucine zipper-fused, dimerized Val-5 natural consensus peptide]",-21,<10,< 9
"dimeric-GSVSRGTQTE [recombinant GCN4 leucine zipper-fused, dimerized in vitro evolved consensus peptide]",-15.5,<4.21,< 7

# Reference: paper PMC3078936 (PLoS ONE, 2011)
